Tests used:
[1] = system: vesamicol receptor; test: Blocking experiments: inhibition of radiotracer accumulation in the rat by coadministered compound; assay type: in vivo, rat (male Wistar); conditions: for effect of coadministered vesamicol on accumulation (in words) / Brain: Blood Ratio / Heart: Blood Ratio / radioactivity in blood / radioactivity in brain / radioactivity in heart / radioactivity in kidney / radioactivity in liver / radioactivity in lung / radioactivity in muscle / radioactivity in spleen: rat; for Brain: Blood Ratio / Heart: Blood Ratio / radioactivity in blood / radioactivity in brain / radioactivity in heart / radioactivity in kidney / radioactivity in liver / radioactivity in lung / radioactivity in muscle / radioactivity in spleen: iv, 60 min
Procedure: *Animals in group 1 received an iv injection of (+)4-[^125 l]HIPP
only. For groups 2, 3, and 4, the radiotracer was coadministered with the
hydrochlorides of (+)7 (0.53 mg/kg), (-)7 (0.53 mg/kg) and vesamicol (0.3
Four groups of male Wistar rats (n=3) were used in these experiments. All animals received an iv dose of 8-10 μCi of the radiotracer in 0.1 ml of 50% aq. ethanol. Additionally, in groups 2, 3 and 4, the radiotracer was coadministered with (+)-HBrPP.HCl(1.3 μmol/kg), (-)-HBrPP.HCl(1.3 μmol/kg) and (dl)-vesamicol hydrochloride (1.1 μmol/kg), respectively. At 60 min. post-injection, blood was collected by cardiac puncture and the animals sacrificed as described above. The data was analyzed as outlined above.
NOTE: The dose of radiotracer injected was 5-7 mCi. Group I was the
control, injected with the radiotracer only. Group II included the
simultaneous injection of "cold"(dl)3-HIPP (HCl) (0.53 mg/kg). Group III
included the simultaneous injection of (dl) vesamicol (HCl) (0.31 mg/kg).
All rats were sacrificed at one hour postinjection.
NOTE: Group I was the control, injected with the radiotracer only. Group
II included the simultaneous injection of "cold"(dl)3-HIPP (HCl) (0.53
mg/kg). Group III included the simultaneous injection of (dl) vesamicol
hydrochloride (0.31 mg/kg). The dose of radiotracer was 8-9 μCi. All
rats were sacrificed at one hour postinjection.
NOTE: Group I received (+)[^125 l]13 only. Group II received the (+)
radiotracer coinjected with 0.31 mg/kg (dl)vesamicol hydrochloride. Group
III received (-)[^125 l]13 only. Group IV received the (-) radiotrace
coinjected with 0.31 mg/kg (dl)vesamicol hydrochloride. All animals were
sacrificed at one hour postinjection. The dose of radiotracer injected pe

[2] = Tissue distribution (biodistribution) of radioiodinated compound in the rat; conditions: for tissue uptake at 5 min / tissue uptake at 0.5 h / tissue uptake at 1 h / tissue uptake at 3 h / decrease of concentration in the brain / initial accumulation in the rat brain / Brain: Blood Ratio / Heart: Blood Ratio / radioactivity in brain / radioactivity in blood / radioactivity in heart / radioactivity in kidney / radioactivity in liver / radioactivity in lung / radioactivity in muscle / radioactivity in spleen: rat; for tissue uptake at 5 min / tissue uptake at 0.5 h / tissue uptake at 1 h / tissue uptake at 3 h / Brain: Blood Ratio / Heart: Blood Ratio / radioactivity in brain / radioactivity in blood / radioactivity in heart / radioactivity in kidney / radioactivity in liver / radioactivity in lung / radioactivity in muscle / radioactivity in spleen: iv; for tissue uptake at 0.5 h: 30 min
Procedure: Four groups of male Wistar rats (with four animals per group) weighing 200-350 g were used in these experiments. Each animal received, while under ether anesthesia, an intravenous injection of the radiotracer (10-20 μCi) dissolved in 0.1 ml of 50% aqueous ethanol. At 5, 30, and 60 and 180 min. post-injection, blood was collected from the anesthetized animals by cardiac puncture, and the animal was immediately sacrificed by cardiectomy. The organs and tissues of interest were harvested, transferred to preweighed tubes and counted in a Beckman gamma counter. The tubes were subsequently reweighed to give the weight of the corresponding tissues. Preweighed tubes containing ^1 -ml samples of a 1:100 dilution of the injection dose were also counted and used as reference for calculating the tissue accumulation of radioactivity. The accumulation of radiotracer was expressed as a percentage of injected dose per gram of tissue.

[3] = + (dl)-vesamicol HCl 0.3 (Table 3) or 0.31 mg/kg
[4] = + cold (dl)3-HIPP HCl 0.53 mg/kg

OC(Cc1ccc(I)cc1)CN1CCC(c2ccccc2)CC1 (racemic) [Compound 5, (dl)-2-Hydroxy-3-(4-iodophenyl)-1-(4-phenylpiperidyl)propane]
vesamicol receptor ligand (in words) ([1]; conclusion from blocking and regional distribution in vivo): potent ligand | effect of coadministered vesamicol on accumulation (in words) [1]: can be blocked by vesamicol | brain retention (in words) ([2]; rodent (and monkey)): prolonged brain retention

OC(Cc1ccc([125I])cc1)CN1CCC(c2ccccc2)CC1 (single isomer, unassigned; (+)) [(+)-4-[^125 l]HIPP, 2-Hydroxy-3-(4-iodophenyl)-1-(4-phenylpiperidyl)propane]
tissue uptake at 5 min ([2]; blood, radioactivity in blood, 5 min): 0.08 %ID/g | tissue uptake at 0.5 h ([2]; blood, radioactivity in blood): 0.04 %ID/g | tissue uptake at 1 h ([2]; blood, radioactivity in blood, 60 min): 0.03 %ID/g | tissue uptake at 5 min ([2]; brain, radioactivity in brain, 5 min): 1.2 %ID/g | tissue uptake at 0.5 h ([2]; brain, radioactivity in brain): 1.22 %ID/g | tissue uptake at 1 h ([2]; brain, radioactivity in brain, 60 min): 1.23 %ID/g | tissue uptake at 3 h ([2]; brain, radioactivity in brain, 180 min): 1.35 %ID/g | tissue uptake at 5 min ([2]; heart, radioactivity in heart, 5 min): 1.8 %ID/g | tissue uptake at 0.5 h ([2]; heart, radioactivity in heart): 1.23 %ID/g | tissue uptake at 1 h ([2]; heart, radioactivity in heart, 60 min): 1.12 %ID/g | tissue uptake at 3 h ([2]; heart, radioactivity in heart, 180 min): 0.84 %ID/g | tissue uptake at 5 min ([2]; kidney, radioactivity in kidney, 5 min): 2.84 %ID/g | tissue uptake at 0.5 h ([2]; kidney, radioactivity in kidney): 2.42 %ID/g | tissue uptake at 1 h ([2]; kidney, radioactivity in kidney, 60 min): 2.3 %ID/g | tissue uptake at 3 h ([2]; kidney, radioactivity in kidney, 180 min): 1.81 %ID/g | tissue uptake at 5 min ([2]; liver, radioactivity in liver, 5 min): 1.58 %ID/g | tissue uptake at 0.5 h ([2]; liver, radioactivity in liver): 2.55 %ID/g | tissue uptake at 1 h ([2]; liver, radioactivity in liver, 60 min): 2.43 %ID/g | tissue uptake at 3 h ([2]; liver, radioactivity in liver, 180 min): 2.38 %ID/g | tissue uptake at 5 min ([2]; lung, radioactivity in lung, 5 min): 11.5 %ID/g | tissue uptake at 0.5 h ([2]; lung, radioactivity in lung): 5.59 %ID/g | tissue uptake at 1 h ([2]; lung, radioactivity in lung, 60 min): 4.75 %ID/g | tissue uptake at 3 h ([2]; lung, radioactivity in lung, 180 min): 3.74 %ID/g | tissue uptake at 5 min ([2]; muscle, radioactivity in muscle, 5 min): 0.24 %ID/g | tissue uptake at 0.5 h ([2]; muscle, radioactivity in muscle): 0.25 %ID/g | tissue uptake at 1 h ([2]; muscle, radioactivity in muscle, 60 min): 0.19 %ID/g | tissue uptake at 3 h ([2]; muscle, radioactivity in muscle, 180 min): 0.24 %ID/g | tissue uptake at 5 min ([2]; spleen, radioactivity in spleen, 5 min): 0.71 %ID/g | tissue uptake at 0.5 h ([2]; spleen, radioactivity in spleen): 1.28 %ID/g | tissue uptake at 1 h ([2]; spleen, radioactivity in spleen, 60 min): 1.23 %ID/g | tissue uptake at 3 h ([2]; spleen, radioactivity in spleen, 180 min): 1.39 %ID/g

OC(Cc1cccc([125I])c1)CN1CCC(c2ccccc2)CC1 (single isomer, unassigned; (+)) [(+)-[^125 l]12] [2-Hydroxyl-3-(3-iodophenyl)-1-[1-(4-phenylpiperidinyl)]propane]
effect of coadministered vesamicol on accumulation (in words) [1]: inhibited | Brain: Blood Ratio [1, 3]: 2.14 | Heart: Blood Ratio [1, 3]: 1.10 | Brain: Blood Ratio [1, 4]: 1.92 | Heart: Blood Ratio [1, 4]: 1.16 | Brain: Blood Ratio ([1]; radiotracer only (control)): 8.49 | Heart: Blood Ratio ([1]; radiotracer only (control)): 3.96 | decrease of concentration in the brain ([2]; 1 hour post-injection vs initial, listed as (+)-[^125 I]12): 20% | decrease of concentration in the brain ([2]; 3 hours post-injection vs initial, listed as (+)-[^125 I]12): 54% | initial accumulation in the rat brain ([2]; listed as (+)-[^125 I]12): 2.08 % of the injected dose | Brain: Blood Ratio ([2]; 5 min): 13.1 | Heart: Blood Ratio ([2]; 5 min): 16.4 | Brain: Blood Ratio ([2]; 60 min): 9.2 | Heart: Blood Ratio ([2]; 60 min): 4.2 | Brain: Blood Ratio ([2]; 180 min): 7.2 | Heart: Blood Ratio ([2]; 180 min): 2.1 | radioactivity in brain ([2]; 180 min): 0.56 % dose/g

OC(Cc1cccc([125I])c1)CN1CCC(c2ccccc2)CC1 (single isomer, unassigned; (-)) [(-)-[^125 l]12] [2-Hydroxyl-3-(3-iodophenyl)-1-[1-(4-phenylpiperidinyl)]propane]
effect of coadministered vesamicol on accumulation (in words) [1]: inhibited | Brain: Blood Ratio [1, 3]: 1.40 | Heart: Blood Ratio [1, 3]: 0.95 | radioactivity in blood [1, 3]: 0.14 % dose/g of tissue | radioactivity in brain [1, 3]: 0.20 % dose/g of tissue | radioactivity in heart [1, 3]: 0.14 % dose/g of tissue | radioactivity in kidney [1, 3]: 0.46 % dose/g of tissue | radioactivity in liver [1, 3]: 0.81 % dose/g of tissue | radioactivity in lung [1, 3]: 0.73 % dose/g of tissue | radioactivity in muscle [1, 3]: 0.13 % dose/g of tissue | radioactivity in spleen [1, 3]: 0.50 % dose/g of tissue | radioactivity in blood [1, 4]: 0.13 % dose/g of tissue | Brain: Blood Ratio [1, 4]: 1.19 | Heart: Blood Ratio [1, 4]: 0.87 | radioactivity in brain [1, 4]: 0.15 % dose/g of tissue | radioactivity in heart [1, 4]: 0.11 % dose/g of tissue | radioactivity in kidney [1, 4]: 0.46 % dose/g of tissue | radioactivity in liver [1, 4]: 0.63 % dose/g of tissue | radioactivity in lung [1, 4]: 0.57 % dose/g of tissue | radioactivity in muscle [1, 4]: 0.10 % dose/g of tissue | radioactivity in spleen [1, 4]: 0.36 % dose/g of tissue | Brain: Blood Ratio ([1]; radiotracer only (control)): 5.08 | Heart: Blood Ratio ([1]; radiotracer only (control)): 1.57 | radioactivity in blood ([1]; radiotracer only (control)): 0.13 % dose/g of tissue | radioactivity in brain ([1]; radiotracer only (control)): 0.64 % dose/g of tissue | radioactivity in heart ([1]; radiotracer only (control)): 0.20 % dose/g of tissue | radioactivity in kidney ([1]; radiotracer only (control)): 0.98 % dose/g of tissue | radioactivity in liver ([1]; radiotracer only (control)): 0.86 % dose/g of tissue | radioactivity in lung ([1]; radiotracer only (control)): 0.92 % dose/g of tissue | radioactivity in muscle ([1]; radiotracer only (control)): 0.15 % dose/g of tissue | radioactivity in spleen ([1]; radiotracer only (control)): 0.83 % dose/g of tissue | decrease of concentration in the brain ([2]; 1 hour post-injection vs initial, listed as (-)-[^125 I]12): 43% | decrease of concentration in the brain ([2]; 3 hours post-injection vs initial, listed as (-)-[^125 I]12): 74% | initial accumulation in the rat brain ([2]; listed as (-)-[^125 I]12): 1.86 % of the injected dose | Brain: Blood Ratio ([2]; 5 min): 9.0 | Heart: Blood Ratio ([2]; 5 min): 11.4 | radioactivity in blood ([2]; 5 min): 0.11 % dose/g | radioactivity in brain ([2]; 5 min): 0.98 % dose/g | radioactivity in heart ([2]; 5 min): 1.26 % dose/g | radioactivity in kidney ([2]; 5 min): 2.46 % dose/g | radioactivity in liver ([2]; 5 min): 1.41 % dose/g | radioactivity in lung ([2]; 5 min): 8.94 % dose/g | radioactivity in muscle ([2]; 5 min): 0.36 % dose/g | radioactivity in spleen ([2]; 5 min): 0.66 % dose/g | Brain: Blood Ratio ([2]; 60 min): 5.1 | Heart: Blood Ratio ([2]; 60 min): 1.9 | radioactivity in blood ([2]; 60 min): 0.11 % dose/g | radioactivity in brain ([2]; 60 min): 0.56 % dose/g | radioactivity in heart ([2]; 60 min): 0.21 % dose/g | radioactivity in kidney ([2]; 60 min): 1.00 % dose/g | radioactivity in liver ([2]; 60 min): 1.04 % dose/g | radioactivity in lung ([2]; 60 min): 1.04 % dose/g | radioactivity in muscle ([2]; 60 min): 0.14 % dose/g | radioactivity in spleen ([2]; 60 min): 0.95 % dose/g | Brain: Blood Ratio ([2]; 180 min): 2.6 | Heart: Blood Ratio ([2]; 180 min): 0.9 | radioactivity in blood ([2]; 180 min): 0.11 % dose/g | radioactivity in brain ([2]; 180 min): 0.27 % dose/g | radioactivity in heart ([2]; 180 min): 0.10 % dose/g | radioactivity in kidney ([2]; 180 min): 0.59 % dose/g | radioactivity in liver ([2]; 180 min): 0.79 % dose/g | radioactivity in lung ([2]; 180 min): 0.46 % dose/g | radioactivity in muscle ([2]; 180 min): 0.08 % dose/g | radioactivity in spleen ([2]; 180 min): 0.44 % dose/g

Reference: patent US5358712A, “Radiopharmaceutical agents for the detection of Alzheimer's disease” (Regents of the University of Minnesota, priority 1993, dated 1994)
